Experimental data reported in EP1509285B1, “SYNERGISTIC COMPOSITION OF TRANS-TETRACOS-15-ENOIC ACID AND APOCYNIN AND USE THEREOF” (COUNCIL OF SCIENTIFIC AND INDUSTRIAL RESEARCH, priority 2002, dated 2003).

Tests used:
[1] = test system: CCl4 induced hepatic injury; experiment: Hepatoprotective activity (in vivo) against CCl4 induced hepatic injury; settings: rats; for Hepatic parameters Glutathione / Hepatic parameters Lipid peroxidation / Serum parameters ALP / Serum parameters Bilirubin / Serum parameters Triglycerides / Serum parameters GOT / Serum parameters GPT: 50 mg kg-1 p.o. at 48h, 24h, 2h before and 6h after CCl4 0.5 ml kg-1 p.o.; for Serum parameters GOT / Serum parameters GPT: unit is µmole pyruvate/min/L; for hepatoprotective activity percent, ALP / hepatoprotective activity percent, Bilirubin / hepatoprotective activity percent, GOT / hepatoprotective activity percent, GPT / hepatoprotective activity percent, Glutathione / hepatoprotective activity percent, Lipid peroxidation / hepatoprotective activity percent, Triglycerides: CCl4, 50 mg kg-1 p.o., H = [1-(TC-V/VC-V)] × 100
Procedure: (§1) i. Animals: The pharmacological studies are conducted on Wistar albino rats (150-180g) and Swiss albino mice (25-30g) of either sex, colony - bred in the Institute's animal house. After procurement, all the animals are divided into different groups and are left for one week for acclimatization to experimentation room and are maintained on standard conditions (23±2°C, 60-70 % relative humidity and 12 h photo period). The animals are fed with standard rodents pellet diet and water ad libitum. There are six animals in each group except for general behaviour and acute toxicity studies where ten animals are used in each group.
Carbon tetrachloride (CCl4): CCl4 is one of the most powerful hepatotoxins (in term of severity of injury). It causes toxic necrosis, which leads to biochemical changes having clinical features similar to those of acute viral hepatitis (Vogel, 1977, Bramanti et. al., 1978, Kumar et. al., 1992). Liver injury is produced by administration of CCl4 mixed with liquid paraffin. Animals are given single dose of CCl4 (50 µl.kg^-1, p.o.) in acute single treatment and (0.5 ml.kg^-1, p.o.) in case of multitreatment with drug. It is administered orally (p.o) by gastric intubation. The control animals received the equal volume of liquid paraffin. (Table 3, 4).
(§2) Freshly prepared suspension (1%, w/v) in 0.2% gum acacia in normal saline is used for all the experiments except for toxicity studies where (10 %, w/v) suspension is used. Silymarin suspension (1%, w/v) in 0.2 % gum acacia is used as a reference standard (positive control).
Treatment of test material before and after hepatotoxin: The doses of TCA and APO individually and in mixture, silymarin (50 mg/kg, p.o. each) and vehicle (normal saline) are fed to different groups of rats at 48 hours, 24 hours and 2 hours before and 6 hours after hepatotoxin (CCl4 , 0.5 ml.kg^-1, p.o.) intoxication. Blood is collected from orbital sinus in all the animals 18 hours after last treatment and serum separated for different estimations. All the animals are then killed by decapitation, their livers are quickly excised, cleaned of adhering tissue, weighed and homogenised in phosphate buffer saline for the analysis of hepatic parameters (Agarwal and Mehendale, 1983, Klingensmith and Mehendale, 1982, Zimmerman, 1973, Edmondson and Peter, 1985, Mitchell, et al, 1973). (Table 3-4).
(§3) • GPT and GOT: Pyruvate formed by transamination reaction is determined spectrophotometrically after reaction with 2,4-dinitrophenylhydrazine (Reitman and Frankel, 1957). • ALP : p-nitrophenol formed in alkaline medium is measured spectrophotometrically using p-nitrophenyl phosphate as substrate (Walter and Schutt, 1974). • Bilirubin : Total bilirubin is measured by diazotization reaction with NaNO2 (Malloy and Evelyn, 1937) • Triglycerides : Triglycerides from serum are extracted with isopropanol and sopanified with KOH. The liberated glycerol is converted to formaldehyde by periodate and determined after reaction with acetyl acetone. Triolein is used as standard (Neri and Firings, 1973). • Glutathione: It is determined after deproteination by reaction with DTNB (Ellman 1959 as modified by David 1987). • Lipid peroxidation: Thiobarbituric acid reacting substances are determined spectrophotometrically at 535 nm. Buege. and Aust. (1978).
(§4) Hepatoprotective activity (H) is calculated by the following equation: H = [1-(TC-V/VC-V)] × 100 [formula]
(§5) Where TC, VC, and V are drug + toxin, vehicle + toxin and vehicle treated groups of animals respectively.

[2] = test system: D-Galactosamine (GAIN) induced hepatic injury; experiment: Hepatoprotective activity (in vivo) against D-Galactosamine induced hepatic injury; settings: rats; for Hepatic parameters Glutathione / Hepatic parameters Lipid peroxidation / Serum parameters ALP / Serum parameters Bilirubin / Serum parameters Triglycerides / Serum parameters GOT / Serum parameters GPT: 50 mg kg-1 p.o. at 48 h, 24h, 2 h before and 6 h after GalN 300 mg kg-1 s.c., mean ± S.E.; for Serum parameters GOT / Serum parameters GPT: unit is µmole pyruvate/min/L; for hepatoprotective activity percent, ALP / hepatoprotective activity percent, Bilirubin / hepatoprotective activity percent, GOT / hepatoprotective activity percent, GPT / hepatoprotective activity percent, Glutathione / hepatoprotective activity percent, Lipid peroxidation / hepatoprotective activity percent, Triglycerides: GalN, 50 mg kg-1 p.o., H = [1-(TC-V/VC-V)] × 100
Procedure: as §1
D-Galactosamine: It is one of the toxins that induce hepatic inflammatory conditions in the rat liver that clinically resembles to viral hepatitis. The mechanism of GalN induced liver injury has been extensively examined and this model is now accepted as one of the authentic systems of liver damage (Bauer et. al., 1974, Al-Tuwaijiri et. al., 1981). (Table1)
Hepatic damage is produced by injecting GalN (300 mg.kg^-1) subcutaneously in normal saline. The control animals received the equal volume of vehicle.
as §2
Blood is collected from orbital sinus in all the animals 18 h after last treatment and serum separated for different estimations. All the animals are then killed by decapitation, their livers are quickly excised, cleaned of adhering tissue, weighed and homogenised in phosphate buffer saline for the analysis of hepatic parameters. A portion of the liver is processed for histopathological studies (Table 1)
as §3, §4, §5

[3] = test system: bile flow and bile solids; experiment: Choleretic activity: bile flow and bile solids after bile duct cannulation in normal anaesthetised rats; format: in vivo; settings: 50 mg kg-1 i.d., bile collected 0-5 hours, mean ±SE
Excerpt: The liver, by producing bile, plays an important role in digestion. The presence of bile in the intestine is necessary to accomplish the digestion and absorption of fats as well as absorption of the fat-soluble vitamins- A, D, E & K. Bile is also an important vehicle of excretion. It removes many drugs, toxins, bile pigments and various inorganic substances either derived from the diet or synthesized by the body as cholesterol or as cholic acid.
Effect on the liver bile flow of test drug and that of vehicle is carried out after cannulating the bile duct in normal anaesthesied rats. Bile collected is from each animal from 0-5 hours (Klaassen, 1969, Donal et al.1953). (Table 5)

[4] = Table 4 (own control groups), mean ± S. E.

Row | SMILES | Hepatic parameters Glutathione [2] [µ mole GSH/g liver] | Hepatic parameters Lipid peroxidation [2] [n moles MDA/g liver] | Serum parameters ALP [2] | Serum parameters Bilirubin [2] [mg %] | Serum parameters Triglycerides [2] [mg %] | Serum parameters GOT [2] [Units] | Serum parameters GPT [2] [Units] | hepatoprotective activity percent, ALP [2] | hepatoprotective activity percent, Bilirubin [2] | hepatoprotective activity percent, GOT [2] | hepatoprotective activity percent, GPT [2] | hepatoprotective activity percent, Glutathione [2] | hepatoprotective activity percent, Lipid peroxidation [2] | hepatoprotective activity percent, Triglycerides [2] | Bile parameters % Increase (as compared to normal) Bile flow [3] [ml%] | Bile parameters % Increase (as compared to normal) Bile solids [3] [mg%] | also measured
1 | CCCCCCCC/C=C/CCCCCCCCCCCCCC(=O)O [TCA, trans-tetracos-15-enoic acid] | 5.39±0.43 | 42.12±3.93 | 44.16±2.87 µ mole of p-nitrophenol formed/min/ L | 0.29±0.03 | 29.78±2.82 | 421.64±30.36 | 758.59±40.86 | (59.67) percent | (66.66) percent | (52.03) percent | (53.74) percent | (38.84) percent | (59.35) percent | (50.99) percent | 08.23±1.71 | 13.40±1.53 | Hepatic parameters Glutathione ([1]; Table 3, mean ± S.E.): 5.35±0.51 µ mole GSH/g liver; Hepatic parameters Lipid peroxidation ([1]; Table 3, mean ± S.E.): 46.88±2.58 n moles MDA/g liver; Serum parameters ALP ([1]; Table 3, mean ± S.E.): 28.72±3.90 µ mole of p-nitrophenol formed/min/ L; Serum parameters Bilirubin ([1]; Table 3, mean ± S.E.): 0.35±0.02 mg %; Serum parameters Triglycerides ([1]; Table 3, mean ± S.E.): 23.53±1.77 mg %; Serum parameters GOT ([1]; Table 3, mean ± S.E.): 409.73±46.57 Units; Serum parameters GPT ([1]; Table 3, mean ± S.E.): 324.84±42.09 Units; hepatoprotective activity percent, ALP ([1]; Table 3): (81.78) percent; hepatoprotective activity percent, Bilirubin ([1]; Table 3): (55.55) percent; hepatoprotective activity percent, GOT ([1]; Table 3): (62.16) percent; hepatoprotective activity percent, GPT ([1]; Table 3): (74.63) percent; hepatoprotective activity percent, Glutathione ([1]; Table 3): (52.92) percent; hepatoprotective activity percent, Lipid peroxidation ([1]; Table 3): (64.33) percent; hepatoprotective activity percent, Triglycerides ([1]; Table 3): (66.05) percent
2 | COc1cc(C(C)=O)ccc1O [APO, Apocynin] | 4.52±0.49 | 48.71±3.69 | 37.73±1.64 µ mole of p-nitrophenol formed/min/ L | 0.41±0.02 | 31.85±3.74 | 509.33±41.63 | 859.18±50.51 | (68.76) percent | (41.66) percent | (38.42) percent | (46.59) percent | (21.51) percent | (39.93) percent | (42.95) percent | 27.39±2.05 | 24.05±2.76 | Hepatic parameters Glutathione [1, 4]: 4.44±0.26 µ mole GSH/g liver; Hepatic parameters Lipid peroxidation [1, 4]: 48.12±2.28 n moles MDA/g liver; Serum parameters ALP [1, 4]: 26.66±2.06 µ mole ofp-nitrophenol formed/min/ L; Serum parameters Bilirubin [1, 4]: 0.37±0.01 mg %; Serum parameters Triglycerides [1, 4]: 28.00±2.39 mg %; Serum parameters GOT [1, 4]: 489.39±66.82 Units; Serum parameters GPT [1, 4]: 838.58±69.65 Units; hepatoprotective activity percent, ALP ([1]; Table 4): (86.05) percent; hepatoprotective activity percent, Bilirubin ([1]; Table 4): (48.94) percent; hepatoprotective activity percent, GOT ([1]; Table 4): (39.31) percent; hepatoprotective activity percent, GPT ([1]; Table 4): (47.86) percent; hepatoprotective activity percent, Glutathione ([1]; Table 4): (40.73) percent; hepatoprotective activity percent, Lipid peroxidation ([1]; Table 4): (42.77) percent; hepatoprotective activity percent, Triglycerides ([1]; Table 4): (36.68) percent
